Patent US9079964B2, “Immunoassay for cyclopropylindole based synthetic cannabinoids, metabolites and derivatives thereof” (Randox Laboratories Limited, priority 2013, dated 2015)

Legend:
[1] = system: antiserum raised to Immunogen I; assay: Competitive ELISA with IgG fraction of antiserum raised to Immunogen I (second bleed) and hapten 1-HRP detecting agent; format: binding, sheep
Protocol: (§1) The wells of an enhanced binding 96 well polystyrene microtiter plate were coated with IgG fraction of antiserum raised to Immunogen I or II, diluted in 10 mM Tris, pH 8.5 (125 μl/well). The appropriate antibody coating dilution was determined using standard ELISA checkerboard techniques. The plate was incubated overnight at 4° C., washed 4 times over 10 minutes with Tris buffered saline containing Tween20 (TBST) and tapped dry. Standard solutions (UR-144 N-pentanoic acid) were applied at 0, 0.625, 1.25, 2.5, 5, 10, 20 and 40 ng/ml and 50 μl of each was added to the appropriate wells. 75 μl of conjugate (appropriate hapten-HRP) diluted in Tris buffer (pH 7.2) containing EDTA, D-mannitol, sucrose, thimerosol and BSA, was added to each of the wells. The appropriate dilution of conjugate was also determined using standard ELISA checkerboard techniques. The plate was incubated at 25° C. for 1 hour. Excess unbound conjugate was removed by washing 6 times over a ten minute period with TBST. 125 μl of tetramethylbenzidine (TMB) substrate solution was added to each well of the plate that was then incubated for 20 minutes in the dark at room temperature. The reaction was terminated by addition of 125 μl of 0.2 M H2SO4 to each well. The absorbance was then measured at 450 nm using a microtiter plate reader. The data are inputted to a computer program called ‘KC Junior’ (Biotek). It gives a 4 parameter fit curve and allows the calculation of concentrations between the standard runs. This program is used to calculate the IC50 values by dividing the 0 ng/ml optical density (OD) value by 2 and obtaining the concentration value from the curve for this OD.
(§2) Cross-reactivity was calculated according to the following formula: % CR=IC50, UR-144 N-pentanoic acid/IC50, cross reactant×100 Where % CR is the percentage cross-reactivity, IC50, UR-144 N-pentanoic acid is the concentration of UR-144 N-pentanoic acid that causes 50% displacement of signal and IC50, cross reactant is the concentration of the cannabinoid/metabolite/selected molecule that causes 50% displacement of signal.
In order to determine the specificity of the competitive ELISAs, standard solutions of a range of structurally related synthetic cannabinoids and their metabolites were prepared in TBST (Tris-Buffered Saline and Tween 20). Using the calibration curves generated and employing a single level of cross reactants, these were used to determine the cross-reactivity of the immunoassays with these substances.

[2] = system: antiserum raised to Immunogen I; assay: UR144/XLR11 Synthetic Cannabinoids (Spice) ELISA, antiserum raised to Immunogen I (third bleed); format: binding, sheep; conditions: for Concentration of compounds that elicit a negative response: Table 4, negative response at this concentration; for % Cross-Reactivity: Table 4, relative to UR144 N-Pentanoic Acid = 100
Protocol: as §1, §2
A further assay was carried out in accordance with the protocol described in Example 9 using Immunogen I.

[3] = Table 2, cross-reactant at 100 ng/ml (single level)
[4] = Table 2, cross-reactant tested at 100 ng/ml
[5] = Table 2, cross-reactant tested at 100 ng/ml, relative to UR-144 N-pentanoic acid

For `CCCCCn1cc(C(=O)c2ccc(C)c3ccccc23)c2ccccc21` [JWH-122], the “% B/BO” value [1, 3] was 97.01%, the “IC50” value [1, 4] was over 0.1 µg/mL and the “% Cross-reactivity (CR)” value [1, 5] was under 3.0%. For the same compound, the “Concentration of compounds that elicit a negative response” value (“Concentration” below) [2] was 100 ng/mL.
For `COc1ccccc1CC(=O)c1cn(CCCCCO)c2ccccc12` [JWH-250 N-(5-hydroxypentyl) metabolite], the “Concentration” value [2] was 100 ng/mL.
With `CCCCCn1cc(C(=O)c2cccc3ccccc23)c2ccc(O)cc21` [JWH-018 (6 hydroxyindole)] the “% B/BO” value [1, 3] was 93.92%, the “IC50” value [1, 4] was over 0.1 µg/mL and the “% Cross-reactivity (CR)” value [1, 5] was under 3.0%. For the same compound, the “Concentration” value [2] was 100 ng/mL.
For `CCCCCn1c(C)c(C(=O)c2ccc(OC)c3ccccc23)c2ccccc21` [JWH-098], the “% B/BO” value [1, 3] was 93.94%, the “IC50” value [1, 4] was over 0.1 µg/mL and the “% Cross-reactivity (CR)” value [1, 5] was under 3.0%. For the same compound, the “Concentration” value [2] was 100 ng/mL.
`CN1CCCCC1Cn1cc(C(=O)c2cc([N+](=O)[O-])ccc2I)c2ccccc21` (stereo not shown) [AM1241] was tested, and the “% B/BO” value [1, 3] was 77.96%, the “IC50” value [1, 4] was over 0.1 µg/mL and the “% Cross-reactivity (CR)” value [1, 5] was under 3.0%. The “Concentration” value [2] was 100 ng/mL.
`CC(O)CCCn1cc(C(=O)C2C(C)(C)C2(C)C)c2ccccc21` (stereo not shown) [UR144 N-(4-hydroxypentyl) metabolite] was tested, and the “% Cross-Reactivity” value [2] was 107%.
In the case of `CC1(C)C(C(=O)c2cn(CCCCCF)c3ccccc23)C1(C)C` [XLR-11, (1-(5-fluoropentyl)-1H-Indol-3-yl)(2,2,3,3-tetramethylcyclopropyl) methanone], the “% B/BO” value ([1]; Table 1, B = absorbance at 450 nm at x ng/ml standard, B0 at 0 ng/ml, second bleed) was 24.0%, the “% Cross-reactivity (CR)” value ([1]; Table 1, CR based on 100% for UR-144 N-pentanoic acid) was 36.9% and the “IC50” value ([1]; Table 1, standard concentration which produces 50% B/B0, second bleed) was 0.009454 µg/mL. The “% Cross-Reactivity” value [2] was 29%.
With `O=C(c1cn(CCCCCO)c2ccccc12)C12CC3CC(CC(C3)C1)C2` [AB001 N-pentanol] the “Concentration” value [2] was 100 ng/mL.
For `CCCCn1cc(C(=O)c2cccc3ccccc23)c2c(O)cccc21` [4-OH JWH-073], the “Concentration” value [2] was 100 ng/mL.
For `CC(O)CCCn1cc(C(=O)c2cccc3ccccc23)c2ccccc21` (stereo not shown) [JWH-018 N-(4-hydroxypentyl) metabolite, 1-(4-hydroxypentyl)-1H-indol-3-yl(napthalen-1-yl)-methanone], the “Concentration” value [2] was 100 ng/mL.
For `CCCCCn1c(O)c(C(=O)c2cccc3ccccc23)c2ccccc21` [2-OH JWH-018], the “Concentration” value [2] was 100 ng/mL.
In the case of `O=C(c1cccc2ccccc12)c1cn(CCCCCO)c2ccccc12` [JWH-018 N (5 hydroxypentyl) metabolite, 1-(5-hydroxypentyl)-1H-indol-3-yl(naphthalen-1-yl)methanone], the “% B/BO” value [1, 3] was 87.56%, the “IC50” value [1, 4] was over 0.1 µg/mL and the “% Cross-reactivity (CR)” value [1, 5] was under 3.0%. The “Concentration” value [2] was 100 ng/mL.
In the case of `O=C(O)CCCn1cc(-c2cccc3ccccc23)c2ccccc21` [JWH-073 N-butanoic acid metabolite, 4-(3-(1-naphthyl)-1H-indol-1-yl)butanoic acid], the “Concentration” value [2] was 100 ng/mL.
For `CCCCCn1cc(C(=O)c2ccc(OC)cc2)c2ccccc21` [RCS 4], the “% B/BO” value [1, 3] was 80.02%, the “IC50” value [1, 4] was over 0.1 µg/mL and the “% Cross-reactivity (CR)” value [1, 5] was under 3.0%. For the same compound, the “Concentration” value [2] was 100 ng/mL.
With `CCCCn1cc(C(=O)c2cccc3ccccc23)c2ccccc21` [JWH-073] the “% B/BO” value [1, 3] was 90.44%, the “IC50” value [1, 4] was over 0.1 µg/mL and the “% Cross-reactivity (CR)” value [1, 5] was under 3.0%. The “Concentration” value [2] was 100 ng/mL.
With `O=C(O)CCCCn1cc(C(=O)C23CC4CC(CC(C4)C2)C3)c2ccccc21` [AB001N-pentanoic acid] the “Concentration” value [2] was 100 ng/mL.
In the case of `O=C(O)CCCCn1cc(C(=O)c2cccc3ccccc23)c2ccccc21` [JWH-018 N (carboxybutyl) metabolite], the “% B/BO” value [1, 3] was 89.14%, the “IC50” value [1, 4] was over 0.1 µg/mL and the “% Cross-reactivity (CR)” value [1, 5] was under 3.0%.
For `C=C(C)C(C)(C)CC(=O)c1cn(CCCCCF)c2ccccc12` [XLR11 Degradant], the “% Cross-Reactivity” value [2] was 3%.
`COc1ccccc1CC(=O)c1cn(CCC2CCCCC2)c2ccccc12` [RCS 8] was tested, and the “% B/BO” value [1, 3] was 88.15%, the “IC50” value [1, 4] was over 0.1 µg/mL and the “% Cross-reactivity (CR)” value [1, 5] was under 3.0%. For the same compound, the “Concentration” value [2] was 100 ng/mL.
For `CCCCCn1cc(C(=O)c2ccc(CC)c3ccccc23)c2ccccc21` [JWH-210], the “% B/BO” value [1, 3] was 95.89%, the “IC50” value [1, 4] was over 0.1 µg/mL and the “% Cross-reactivity (CR)” value [1, 5] was under 3.0%.
With `CCCCCCn1cc(C(=O)c2cccc3ccccc23)c2cc(O)ccc21` [JWH-019 5-hydroxyindole metabolite] the “Concentration” value [2] was 100 ng/mL.
For `COc1ccccc1CC(=O)c1cn(CCCCCC(=O)O)c2ccccc12` [JWH-250 N-(5-carboxypentyl) metabolite], the “Concentration” value [2] was 100 ng/mL.
For `O=C(c1cccc2ccccc12)c1cn(CCCCCF)c2ccccc12` [AM2201], the “% B/BO” value [1, 3] was 85.58%, the “IC50” value [1, 4] was over 0.1 µg/mL and the “% Cross-reactivity (CR)” value [1, 5] was under 3.0%. The “Concentration” value [2] was 100 ng/mL.
`CN1CCCCC1Cn1cc(C(=O)c2cccc3ccccc23)c2ccccc21` (stereo not shown) [AM1220] was tested, and the “% B/BO” value [1, 3] was 73.59%, the “IC50” value [1, 4] was over 0.1 µg/mL and the “% Cross-reactivity (CR)” value [1, 5] was under 3.0%.
`COc1ccc(C(=O)c2cn(CCCCCO)c3ccccc23)c2ccccc12` [JWH-081 N-(5-hydroxypentyl) metabolite] was tested, and the “Concentration” value [2] was 100 ng/mL.
With `O=C(c1cccc2ccccc12)c1c[nH]c2ccccc12` [N-desalkyl JWH-018, 3-(1-naphthoyl) indole] the “Concentration” value [2] was 100 ng/mL.
For `CCCCn1cc(C(=O)c2cccc3ccccc23)c2cccc(O)c21` [7-OH JWH-073], the “Concentration” value [2] was 100 ng/mL.
With `CCCCCn1cc(C(=O)c2cccc3ccccc23)c2c(O)cccc21` [4-OH JWH-018] the “Concentration” value [2] was 100 ng/mL.
`O=C(O)CCCCn1cc(-c2cccc3ccccc23)c2ccccc21` [JWH-018 N-pentanoic acid metabolite, 5-(3-(1-naphthyl)-1H-indol-1-yl)pentanoic acid] was tested, and the “Concentration” value [2] was 100 ng/mL.
For `CCCCn1cc(C(=O)c2cccc3ccccc23)c2cc(O)ccc21` [5-OH JWH-073], the “Concentration” value [2] was 100 ng/mL.
In the case of `CCCCn1cc(C(=O)c2cccc3ccccc23)c2ccc(O)cc21` [6-OH JWH-073], the “Concentration” value [2] was 100 ng/mL.
With `CC(O)CCn1cc(C(=O)c2cccc3ccccc23)c2ccccc21` (stereo not shown) [JWH-073 N-(3-hydroxybutyl) metabolite, 1-(3-hydroxybutyl)-1H-indol-3-yl(napthalen-1-yl)methanone] the “Concentration” value [2] was 100 ng/mL.
With `CCCCCn1cc(C(=O)c2cccc3ccccc23)c2cccc(O)c21` [7-OH JWH-018] the “Concentration” value [2] was 100 ng/mL.
With `CCCCn1c(O)c(C(=O)c2cccc3ccccc23)c2ccccc21` [2-OH JWH-073] the “Concentration” value [2] was 100 ng/mL.
For `O=C(NC12CC3CC(CC(C3)C1)C2)c1nn(CCCCCF)c2ccccc12` [AKB48 N (5-fluoropentyl) analog], the “Concentration” value [2] was 100 ng/mL.
With `CCCCCn1cc(C(=O)C23CC4CC(CC(C4)C2)C3)c2ccccc21` [JWH-018 adamantyl] the “Concentration” value [2] was 100 ng/mL.
For `O=C(NC12CC3CC(CC(C3)C1)C2)c1cn(CCCCCF)c2ccccc12` [STS135], the “Concentration” value [2] was 100 ng/mL.
With `CCCCCn1cc(C(=O)c2cccc3ccccc23)c2ccccc21` [JWH-018] the “% B/BO” value [1, 3] was 87.89%, the “IC50” value [1, 4] was over 0.1 µg/mL and the “% Cross-reactivity (CR)” value [1, 5] was under 3.0%.
With `CCCCCn1cc(C(=O)NC23CC4CC(CC(C4)C2)C3)c2ccccc21` [JWH-018 adamantyl carboxamide] the “Concentration” value [2] was 10 ng/mL.
In the case of `CCCCCCn1cc(C(=O)c2cccc3ccccc23)c2ccccc21` [JWH-019], the “% B/BO” value [1, 3] was 87.30%, the “IC50” value [1, 4] was over 0.1 µg/mL and the “% Cross-reactivity (CR)” value [1, 5] was under 3.0%.
For `O=C(c1cccc2ccccc12)c1cn(CCCCO)c2ccccc12` [JWH-073 N-(4-hydroxybutyl) metabolite, 1-(4-hydroxybutyl)-1H-indol-3-yl(naphthalen-1-yl)methanone], the “Concentration” value [2] was 100 ng/mL.
For `CC(O)CCCn1cc(C(=O)C2C(C)(C)C2(C)C)c2ccccc21` (stereo not shown) [XLR11 N-(4-hydroxypentyl) metabolite], the “% Cross-Reactivity” value [2] was 2%.
